According to patent US12227495B2, “Herbicidal compounds” (SYNGENTA CROP PROTECTION AG, priority 2018, dated 2025):

Experiments:
Type in all cases: in vivo
Conditions in all cases: evaluated after 13 days
[1] = tested on: Ipomoea hederacea (IPOHE); assay: Post-emergence herbicide test, glasshouse, percentage damage
Protocol: (§1) Seeds of a variety of test species are sown in standard soil in pots (Lolium perenne (LOLPE), Solanum nigrum (SOLNI), Amaranthus retoflexus (AMARE), Setaria faberi (SETFA), Echinochloa crus-galli (ECHCG), Ipomoea hederacea (IPOHE)). After cultivation for one day (pre-emergence) or after 8 days cultivation (post-emergence) under controlled conditions in a glasshouse (at 24/16° C., day/night; 14 hours light; 65% humidity), the plants are sprayed with an aqueous spray solution derived from the formulation of the technical active ingredient in acetone/water (50:50) solution containing 0.5% Tween 20 (polyoxyethelyene sorbitan monolaurate, CAS RN 9005-64-5). Compounds are applied at 500 g/ha unless otherwise stated. The test plants are then grown in a glasshouse under controlled conditions in a glasshouse (at 24/16° C., day/night; 14 hours light; 65% humidity) and watered twice daily. After 13 days for pre and post-emergence, the test is evaluated for the percentage damage caused to the plant. The biological activities are shown in the following table on a five point scale (5=81-100%; 4=61-80%; 3=41-60%; 2=21-40%; 1=0-20%).

Solanum nigrum (SOLNI) [2] = assay: as above
Protocol: as §1

Lolium perenne (LOLPE) [3] = assay: as above
Protocol: as §1

[4] = tested on: Echinochloa crus-galli (ECHCG); assay: as above
Protocol: as §1

Setaria faberi (SETFA) [5] = assay: as above
Protocol: as §1

[6] = tested on: Amaranthus retoflexus (AMARE); assay: as above
Protocol: as §1

[7] = tested on: Ipomoea hederacea (IPOHE); assay: Pre-emergence herbicide test, glasshouse, percentage damage
Protocol: as §1

Solanum nigrum (SOLNI) [8] = assay: as above
Protocol: as §1

Lolium perenne (LOLPE) [9] = assay: as above
Protocol: as §1

[10] = tested on: Echinochloa crus-galli (ECHCG); assay: as above
Protocol: as §1

Setaria faberi (SETFA) [11] = assay: as above
Protocol: as §1

[12] = tested on: Amaranthus retoflexus (AMARE); assay: as above
Protocol: as §1

| Structure (SMILES) | percentage damage caused to the plant, IPOHE ([1]; 500 g/ha) | percentage damage caused to the plant, SOLNI (Solanum nigrum (SOLNI) [2]; 500 g/ha) | percentage damage caused to the plant, LOLPE (Lolium perenne (LOLPE) [3]; 500 g/ha) | percentage damage caused to the plant, ECHCG ([4]; 500 g/ha) | percentage damage caused to the plant, SETFA (Setaria faberi (SETFA) [5]; 500 g/ha) | percentage damage caused to the plant, AMARE ([6]; 500 g/ha) | Pre-emergence Test IPOHE percentage damage (five point scale) ([7]; rate 500 g/ha) | Pre-emergence Test SOLNI percentage damage (five point scale) (Solanum nigrum (SOLNI) [8]; rate 500 g/ha) | Pre-emergence Test LOLPE percentage damage (five point scale) (Lolium perenne (LOLPE) [9]; rate 500 g/ha) | Pre-emergence Test ECHCG percentage damage (five point scale) ([10]; rate 500 g/ha) | Pre-emergence Test SETFA percentage damage (five point scale) (Setaria faberi (SETFA) [11]; rate 500 g/ha) | Pre-emergence Test AMARE percentage damage (five point scale) ([12]; rate 500 g/ha) | percentage damage caused to the plant, IPOHE ([1]; 250 g/ha) | percentage damage caused to the plant, ECHCG ([4]; 250 g/ha) | percentage damage caused to the plant, SETFA (Setaria faberi (SETFA) [5]; 250 g/ha) | percentage damage caused to the plant, AMARE ([6]; 250 g/ha) | Pre-emergence Test IPOHE percentage damage (five point scale) ([7]; rate 250 g/ha) | Pre-emergence Test ECHCG percentage damage (five point scale) ([10]; rate 250 g/ha) | Pre-emergence Test SETFA percentage damage (five point scale) (Setaria faberi (SETFA) [11]; rate 250 g/ha) | Pre-emergence Test AMARE percentage damage (five point scale) ([12]; rate 250 g/ha) | also measured |
| --- | --- | --- | --- | --- | --- | --- | --- | --- | --- | --- | --- | --- | --- | --- | --- | --- | --- | --- | --- | --- | --- |
| Fc1cc(Cl)cnc1Oc1cccc(F)c1-c1cc(C(F)F)no1 [Compound A1, 5-[2-[(5-CHLORO-3-FLUORO-2-PYRIDYL)OXY]-6-FLUORO-PHENYL]-3-(DIFLUOROMETHYL)ISOXAZOLE] | 5 (5=81-100%) | 5 (5=81-100%) | 5 (5=81-100%) | 5 (5=81-100%) | 5 (5=81-100%) | 5 (5=81-100%) | 5 (5=81-100%) | 5 (5=81-100%) | 5 (5=81-100%) | 5 (5=81-100%) | 5 (5=81-100%) | 5 (5=81-100%) |  |  |  |  |  |  |  |  |  |
| O=[N+]([O-])c1ccc(Oc2cccc(F)c2-c2cc(C(F)F)no2)nc1 [Compound A2, 3-(DIFLUOROMETHYL)-5-[2-FLUORO-6-[(5-NITRO-2-PYRIDYL)OXY]PHENYL]ISOXAZOLE] | 4 (4=61-80%) | 5 (5=81-100%) | 5 (5=81-100%) | 5 (5=81-100%) | 5 (5=81-100%) | 5 (5=81-100%) | 2 (2=21-40%) | 4 (4=61-80%) | 4 (4=61-80%) | 5 (5=81-100%) | 5 (5=81-100%) | 5 (5=81-100%) |  |  |  |  |  |  |  |  |  |
| Fc1cc(Cl)cnc1Oc1cccc(F)c1-c1ncc(C(F)(F)F)o1 [Compound A3, 2-[2-[(5-CHLORO-3-FLUORO-2-PYRIDYL)OXY]-6-FLUORO-PHENYL]-5-(TRIFLUOROMETHYL)OXAZOLE] | 1 (1=0-20%) | 3 (3=41-60%) | 1 (1=0-20%) | 1 (1=0-20%) | 4 (4=61-80%) | 2 (2=21-40%) | 1 (1=0-20%) | 3 (3=41-60%) | 1 (1=0-20%) | 3 (3=41-60%) | 3 (3=41-60%) | 3 (3=41-60%) |  |  |  |  |  |  |  |  |  |
| Fc1cccc(Oc2ncc(Cl)cc2Cl)c1-c1cc(C(F)F)no1 [Compound A4] | 1 (1=0-20%) | 5 (5=81-100%) | 1 (1=0-20%) | 1 (1=0-20%) | 3 (3=41-60%) | 5 (5=81-100%) | 1 (1=0-20%) | 3 (3=41-60%) | 1 (1=0-20%) | 2 (2=21-40%) | 2 (2=21-40%) | 3 (3=41-60%) |  |  |  |  |  |  |  |  |  |
| Fc1cc(Cl)cnc1Oc1cccc(I)c1-n1cc(C(F)(F)F)cn1 [Compound A57, 5-chloro-3-fluoro-2-[3-iodo-2-[4-(trifluoromethyl)pyrazol-1-yl]phenoxy]pyridine] |  |  |  |  |  |  |  |  |  |  |  |  |  |  |  |  |  |  |  |  | percentage damage caused to the plant, IPOHE ([1]; 1000 g/ha): 2 (2=21-40%); percentage damage caused to the plant, SOLNI (Solanum nigrum (SOLNI) [2]; 1000 g/ha): 5 (5=81-100%); percentage damage caused to the plant, LOLPE (Lolium perenne (LOLPE) [3]; 1000 g/ha): 1 (1=0-20%); percentage damage caused to the plant, ECHCG ([4]; 1000 g/ha): 1 (1=0-20%); percentage damage caused to the plant, SETFA (Setaria faberi (SETFA) [5]; 1000 g/ha): 4 (4=61-80%); percentage damage caused to the plant, AMARE ([6]; 1000 g/ha): 5 (5=81-100%); Pre-emergence Test SOLNI percentage damage (five point scale) (Solanum nigrum (SOLNI) [8]; rate 1000 g/ha): 4 (4=61-80%); Pre-emergence Test LOLPE percentage damage (five point scale) (Lolium perenne (LOLPE) [9]; rate 1000 g/ha): 1 (1=0-20%); Pre-emergence Test ECHCG percentage damage (five point scale) ([10]; rate 1000 g/ha): 1 (1=0-20%); Pre-emergence Test SETFA percentage damage (five point scale) (Setaria faberi (SETFA) [11]; rate 1000 g/ha): 5 (5=81-100%); Pre-emergence Test AMARE percentage damage (five point scale) ([12]; rate 1000 g/ha): 5 (5=81-100%) |
| Fc1cc(Cl)cnc1Oc1ccccc1-c1ccc(Cl)s1 [Compound A66, 5-chloro-2-[2-(5-chloro-2-thienyl)phenoxy]-3-fluoro-pyridine] |  |  |  |  |  |  |  |  |  |  |  |  |  |  |  |  |  |  |  |  | percentage damage caused to the plant, IPOHE ([1]; 1000 g/ha): 2 (2=21-40%); percentage damage caused to the plant, SOLNI (Solanum nigrum (SOLNI) [2]; 1000 g/ha): 5 (5=81-100%); percentage damage caused to the plant, LOLPE (Lolium perenne (LOLPE) [3]; 1000 g/ha): 1 (1=0-20%); percentage damage caused to the plant, ECHCG ([4]; 1000 g/ha): 3 (3=41-60%); percentage damage caused to the plant, SETFA (Setaria faberi (SETFA) [5]; 1000 g/ha): 2 (2=21-40%); percentage damage caused to the plant, AMARE ([6]; 1000 g/ha): 5 (5=81-100%) |
| Cc1ccc(C#N)nc1Oc1cccc(F)c1-c1cc(C(F)F)no1 [Compound A76] |  |  |  |  |  |  |  |  |  |  |  |  | 3 (3=41-60%) | 1 (1=0-20%) | 1 (1=0-20%) | 2 (2=21-40%) |  |  |  |  | percentage damage caused to the plant, SOLNI (Solanum nigrum (SOLNI) [2]; 250 g/ha): 4 (4=61-80%); percentage damage caused to the plant, LOLPE (Lolium perenne (LOLPE) [3]; 250 g/ha): 1 (1=0-20%) |
| FC(F)c1cc(-c2c(Br)cccc2Oc2ccc(Cl)cn2)on1 [Compound A100] |  |  |  |  |  |  |  |  |  |  |  |  | 2 (2=21-40%) | 5 (5=81-100%) | 5 (5=81-100%) | 5 (5=81-100%) | 1 (1=0-20%) | 2 (2=21-40%) | 5 (5=81-100%) | 5 (5=81-100%) |  |
| Cc1noc(-c2ccccc2Oc2ncc(Cl)cc2F)n1 [Compound A126] |  |  |  |  |  |  |  |  |  |  |  |  |  |  |  |  | 1 (1=0-20%) | 4 (4=61-80%) | 3 (3=41-60%) | 5 (5=81-100%) |  |
| Fc1cc(Cl)cnc1Oc1ccccc1-c1cc(C(F)F)on1 [Compound A163] |  |  |  |  |  |  |  |  |  |  |  |  | 3 (3=41-60%) | 5 (5=81-100%) | 5 (5=81-100%) | 5 (5=81-100%) | 1 (1=0-20%) | 4 (4=61-80%) | 5 (5=81-100%) | 5 (5=81-100%) |  |
| Fc1cc(Cl)cnc1Oc1ccccc1-n1cc(C(F)F)nn1 [Compound A169] |  |  |  |  |  |  |  |  |  |  |  |  | 5 (5=81-100%) | 5 (5=81-100%) | 5 (5=81-100%) | 5 (5=81-100%) | 5 (5=81-100%) | 5 (5=81-100%) | 5 (5=81-100%) | 5 (5=81-100%) |  |
